Data taken from article PMC6934184, “Selective DNA-PKcs inhibition extends the therapeutic index of localized radiotherapy and chemotherapy” (The Journal of Clinical Investigation, 2019).

Molecular target: T1, CDC42 BPA (MRCKA) (Homo sapiens, UniProt Q5VT25)
T1 construct: purchased Thermo Fisher Scientific (Life Technologies) SelectScreen
Test: SelectScreen Z'LYTE
Type: biochemical
How it was run: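 Percent values come from Thermo SelectScreen profiling of NU5455, combining activity and binding assays. CSF1R was run in Z'LYTE format at Km app ATP, and CAMK1 in Adapta format with ATP listed at 10.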

T1 sequence (Q5VT25 whole entry): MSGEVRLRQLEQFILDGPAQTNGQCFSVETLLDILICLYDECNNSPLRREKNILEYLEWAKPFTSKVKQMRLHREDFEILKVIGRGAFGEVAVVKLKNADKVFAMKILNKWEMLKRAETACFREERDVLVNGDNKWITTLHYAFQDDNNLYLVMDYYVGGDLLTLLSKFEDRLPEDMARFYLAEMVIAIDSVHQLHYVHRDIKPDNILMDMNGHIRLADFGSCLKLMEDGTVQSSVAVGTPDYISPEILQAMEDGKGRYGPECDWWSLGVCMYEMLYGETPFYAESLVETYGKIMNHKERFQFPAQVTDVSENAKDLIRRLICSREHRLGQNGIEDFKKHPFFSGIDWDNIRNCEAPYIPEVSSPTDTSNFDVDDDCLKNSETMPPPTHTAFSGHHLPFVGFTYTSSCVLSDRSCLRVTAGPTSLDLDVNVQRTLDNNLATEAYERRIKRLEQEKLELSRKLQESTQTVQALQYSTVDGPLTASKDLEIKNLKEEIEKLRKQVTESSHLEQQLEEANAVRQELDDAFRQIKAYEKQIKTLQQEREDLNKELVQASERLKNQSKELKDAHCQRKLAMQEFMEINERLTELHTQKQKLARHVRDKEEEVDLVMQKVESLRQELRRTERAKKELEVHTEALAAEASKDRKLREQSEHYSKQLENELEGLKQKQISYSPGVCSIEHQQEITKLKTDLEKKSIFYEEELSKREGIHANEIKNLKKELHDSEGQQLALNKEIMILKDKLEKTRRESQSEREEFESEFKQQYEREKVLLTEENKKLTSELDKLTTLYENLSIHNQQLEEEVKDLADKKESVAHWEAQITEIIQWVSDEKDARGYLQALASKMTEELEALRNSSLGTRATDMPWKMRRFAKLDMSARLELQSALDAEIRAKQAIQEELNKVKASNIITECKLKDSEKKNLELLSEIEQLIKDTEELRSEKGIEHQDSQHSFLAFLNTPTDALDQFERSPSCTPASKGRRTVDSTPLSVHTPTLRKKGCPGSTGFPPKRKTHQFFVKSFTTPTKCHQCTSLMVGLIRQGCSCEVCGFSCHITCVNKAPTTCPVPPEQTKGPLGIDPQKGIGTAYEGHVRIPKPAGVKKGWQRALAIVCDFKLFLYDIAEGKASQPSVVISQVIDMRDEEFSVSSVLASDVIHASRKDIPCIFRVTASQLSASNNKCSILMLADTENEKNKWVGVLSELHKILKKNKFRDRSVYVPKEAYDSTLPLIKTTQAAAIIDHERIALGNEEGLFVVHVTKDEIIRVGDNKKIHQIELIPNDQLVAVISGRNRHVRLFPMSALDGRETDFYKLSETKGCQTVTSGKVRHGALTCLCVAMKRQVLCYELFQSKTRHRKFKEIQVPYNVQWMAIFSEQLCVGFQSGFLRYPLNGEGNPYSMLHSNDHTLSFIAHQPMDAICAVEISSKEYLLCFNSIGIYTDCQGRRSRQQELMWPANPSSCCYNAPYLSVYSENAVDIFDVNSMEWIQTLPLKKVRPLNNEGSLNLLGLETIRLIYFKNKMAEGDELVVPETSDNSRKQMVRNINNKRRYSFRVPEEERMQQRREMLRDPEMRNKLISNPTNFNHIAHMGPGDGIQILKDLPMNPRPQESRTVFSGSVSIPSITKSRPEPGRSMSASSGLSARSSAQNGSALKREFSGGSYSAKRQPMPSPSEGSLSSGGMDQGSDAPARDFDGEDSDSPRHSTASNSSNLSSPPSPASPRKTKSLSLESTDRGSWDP

## CN(C(=O)CN1CCOCC1)c1ccc2sc3c(-c4cccc5c(=O)cc(N6CC7CCC(C6)O7)oc45)cccc3c2c1 [NU5455]
  inhibition at 1 µM: 5%
